According to patent publication US10913720B2, “Benzyloxypyridylcyclopropanecarboxylic acids, pharmaceutical compositions and uses thereof” (Boehringer Ingelheim International GmbH, priority 2017, dated 2021):
Values after ≈ are worked out from the molar mass of the structure shown. Where two headings read alike, the source gives them in different places.

Assays:
[1] = Aqueous solubility (buffer vs acetonitrile/water, LC-UV); assay type: physicochemical; conditions: kinetic from dmso stock, 2.5% DMSO
Method: The aqueous solubility of the compounds of the invention is determined by comparing the amount dissolved in buffer to the amount in an acetonitrile/water (1/1) solution. Starting from a 10 mM DMSO stock solution aliquots are diluted with acetonitrile/water (1/1) or buffer, respectively. After 24 h of shaking, the solutions are filtrated and analyzed by LC-UV. The amount dissolved in buffer is compared to the amount in the acetonitrile solution.
Solubility is usually being measured from 0.001 to 0.125 mg/mL at a DMSO concentration of 2.5%. If more than 90% of the compound is dissolved in buffer, the value is marked with “>”.

human GPR40 receptor = human GPR40 receptor (Homo sapiens, UniProt O14842); assay: IP1 accumulation measurements using the IPOne assay system; assay type: cell-based; conditions: 1321N1 cells stably expressing human GPR40; 1 h stimulation at 37° C.
Sequence of human GPR40 receptor (O14842 whole entry): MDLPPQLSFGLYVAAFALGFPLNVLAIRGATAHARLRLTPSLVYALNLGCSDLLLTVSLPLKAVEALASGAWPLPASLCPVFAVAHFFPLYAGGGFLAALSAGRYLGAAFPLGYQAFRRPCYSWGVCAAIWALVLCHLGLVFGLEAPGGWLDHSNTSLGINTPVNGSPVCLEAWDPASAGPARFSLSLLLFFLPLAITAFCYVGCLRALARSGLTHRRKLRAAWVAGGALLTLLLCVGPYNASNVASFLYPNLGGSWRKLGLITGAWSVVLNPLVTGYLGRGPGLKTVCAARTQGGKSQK
Method: IP1 accumulation measurements using the IPOne assay system—1321N1 cells stably expressing human GPR40 receptor (Euroscreen, Belgium) are seeded 24 h before the assay in white 384-well plates in culture medium containing 10% FCS, 1% Na-Pyruvate and 400 μg/mL G418. IP1 is assayed according to the manufacturer's description (Cisbio Bioassays, France). In brief, the assay is started by substitution of the culture medium by stimulation buffer (Hepes 10 mM, CaCl2) 1 mM, MgCl2 0.5 mM, KCl 4.2 mM, NaCl 146 mM, glucose 5.5 mM and LiCl 50 mM, pH 7.4). Cells are stimulated for 1 h at 37° C., 5% CO2 by addition of the compounds that are diluted in stimulation buffer containing LiCl. Assays are stopped by adding HTRF-conjugates (IP1-d2 and Anti-IP1 cryptate Tb) and lysis buffer, provided by the manufacturer. After an incubation time of 1 h at room temperature plates are measured using an EnVision™, Perkin Elmer. The obtained fluorescence ratios at 665/615 […] are then used to calculate the pEC50 values using Assay Explorer 3.3 Software (Accelrys, Inc.) by interpolation using an IP1 reference curve and subsequent sigmoidal curve fitting allowing for a variable hill slope.

[2] = pH 2.2, 24 h shaking, read-out: Solubility at pH 2.2
[3] = pH 6.8, 24 h shaking, read-out: Solubility at pH 6.8

| Structure (SMILES) | solubility at 24 h [1, 2] [µg/mL] | solubility at 24 h [1, 3] [µg/mL] | EC50 (human GPR40 receptor) [nM] |
| --- | --- | --- | --- |
| Cc1cc(OCCC(C)(C)O)cc(C)c1-c1ccc(F)c2c1CC[C@H]2Oc1ccc([C@H]2C[C@@H]2C(=O)O)cc1 [Example 17 in WO 2013/178575, reference compound] | < 1 | < 1 | – |
| Cc1cc(-c2nnn(C)n2)cc(C)c1-c1ccc(F)c2c1CC[C@H]2Oc1ccc([C@H]2C[C@@H]2C(=O)O)cc1 [Example 45 in WO 2013/178575, reference compound] | < 1 | < 1 | – |
| Cc1cc(OCCC(C)(C)O)cc(C)c1-c1cccc(COc2ccc([C@H]3C[C@@H]3C(=O)O)nc2)c1 [Example 3, (1S,2S)-2-{5-[4′-(3-Hydroxy-3-methyl-butoxy)-2′,6′-dimethyl-biphenyl-3-ylmethoxy]-pyridin-2-yl}-cyclopropanecarboxylic Acid] | 24 (≈ 50.5 µM) | 40 (≈ 84.1 µM) | 19 |
| Cc1cc(-c2nnn(C)n2)cc(C)c1-c1cccc(COc2ccc([C@H]3C[C@@H]3C(=O)O)nc2)c1 [Example 1, (1S,2S)-2-{5-[2′,6′-Dimethyl-4′-(2-methyl-2H-tetrazol-5-yl)-biphenyl-3-ylmethoxy]-pyridin-2-yl}-cyclopropanecarboxylic Acid] | 7 (≈ 15.4 µM) | 19 (≈ 41.7 µM) | 5 |
